Measurements as given in ChEMBL document CHEMBL4376868, “Structure-Activity Relationship Study of Novel 6-Aryl-2-benzoyl-pyridines as Tubulin Polymerization Inhibitors with Potent Antiproliferative Properties” (J Med Chem, 2020).
Activity calls are given as the source filed them. No cut-off for these calls is given here.

Tests used:
A-375 [1] = experiment: Antiproliferative activity against human A375 cells measured after 72 hrs by MTS assay; format: functional, cell-based; settings: A-375, 72 h
Tubulin (Sus scrofa) [2] = target: T1, Tubulin (Sus scrofa) (UniProt P02554+P02550); experiment: Inhibition of porcine brain tubulin polymerization at 10 uM measured at 30 secs interval for 65 mins by spectrophotometric method
RPMI-7951 = experiment: Antiproliferative activity against human RPMI7951 cells measured after 72 hrs by MTS assay; format: functional, cell-based; settings: RPMI-7951, 72 h
MDA-MB-231 = experiment: Antiproliferative activity against human MDA-MB-231 cells measured after 72 hrs by MTS assay; format: functional, cell-based; settings: MDA-MB-231, 72 h
SK-BR-3 = experiment: Antiproliferative activity against human SK-BR-3 cells measured after 72 hrs by MTS assay; format: functional, cell-based; settings: SK-BR-3, 72 h
M14 = experiment: Antiproliferative activity against human M14 cells measured after 72 hrs by MTS assay; format: functional, cell-based; settings: M14, 72 h
MDA-MB-453 = experiment: Antiproliferative activity against human MDA-MB-453 cells measured after 72 hrs by MTS assay; format: functional, cell-based; settings: MDA-MB-453, 72 h
[3] = Antiproliferative activity against human PC3/TxR cells measured after 72 hrs by MTS assay; format: functional, cell-based
[4] = Antiproliferative activity against human M14/LCC6MDR1 cells measured after 72 hrs by MTS assay; format: functional, cell-based
PC-3 = experiment: Antiproliferative activity against human PC3 cells measured after 72 hrs by MTS assay; format: functional, cell-based; settings: PC-3, 72 h
[5] = Antiproliferative activity against human DU145-TxR cells measured after 72 hrs by MTS assay; format: functional, cell-based
DU-145 = experiment: Antiproliferative activity against human DU145 cells measured after 72 hrs by MTS assay; format: functional, cell-based; settings: DU-145, 72 h
A-375 [6] = experiment: Antitumor activity against human A375 cells xenografted in NSG mouse assessed as reduction in tumor weight at 20 mg/kg, ip administered 5 times per week for 14 days relative to control; format: functional; parameters: scale not given: the % may be the effect or the level left
A-375 [7] = experiment: Antitumor activity against human A375 cells xenografted in NSG mouse assessed as tumor necrosis at 10 to 20 mg/kg, ip administered 5 times per week for 14 days measured post-last dose by H and E staining-based microscopic analysis; format: functional, organism-based
[8] = Toxicity in human A375 cells xenografted NSG mouse assessed as decrease in body weight loss at 10 to 20 mg/kg, ip administered 5 times per week for 14 days measured 3 times a week during compound dosing; format: organism-based; settings: in vivo, 336 h
A-375 [9] = experiment: Antitumor activity against human A375 cells xenografted in NSG mouse assessed as disruption of tumor vasculature development by measuring decrease in CD31 staining at 10 to 20 mg/kg, ip administered 5 times per week for 14 days measured post-last dose by immunohistochemical analysis; format: functional, organism-based
[10] = Resistance index, ratio of IC50 for antiproliferative activity against human DU145-TxR cells to IC50 for antiproliferative activity against human DU145 cells; format: functional
A-375 [11] = experiment: Antitumor activity against human A375 cells xenografted in NSG mouse assessed as reduction in tumor volume at 10 mg/kg, ip administered 5 times per week for 14 days relative to control; format: functional; parameters: scale not given: the % may be the effect or the level left
A-375 [12] = experiment: Antitumor activity against human A375 cells xenografted in NSG mouse assessed as increase in cleaved PARP level at 10 to 20 mg/kg, ip administered 5 times per week for 14 days measured post-last dose by immunohistochemical analysis; format: functional, organism-based
A-375 [13] = experiment: Antitumor activity against human A375 cells xenografted in NSG mouse assessed as reduction in tumor weight at 10 mg/kg, ip administered 5 times per week for 14 days relative to control; format: functional; parameters: scale not given: the % may be the effect or the level left
[14] = Resistance index, ratio of IC50 for antiproliferative activity against human PC3/TxR cells to IC50 for antiproliferative activity against human PC3 cells; format: functional
A-375 [15] = experiment: Antitumor activity against human A375 cells xenografted in NSG mouse assessed as reduction in tumor size at 10 to 20 mg/kg, ip administered 5 times per week for 14 days by digital caliper method; format: functional, organism-based
[16] = Resistance index, ratio of IC50 for antiproliferative activity against human M14/LCC6MDR1 cells to IC50 for antiproliferative activity against human M14 cells; format: functional
A-375 [17] = experiment: Antitumor activity against human A375 cells xenografted in NSG mouse assessed as reduction in tumor volume at 20 mg/kg, ip administered 5 times per week for 14 days relative to control; format: functional; parameters: scale not given: the % may be the effect or the level left
Tubulin (Sus scrofa) [18] = target: T1, Tubulin (Sus scrofa); experiment: (§1) Binding affinity to porcine brain tubulin polymerization by surface plasmon analysis analysis
Tubulin [19] = target: T2, Tubulin (Sus scrofa, UniProt P02554+P02550); experiment: as §1
Tubulin (Sus scrofa) [20] = target: T1, Tubulin (Sus scrofa); experiment: (§2) Inhibition of porcine brain tubulin polymerization measured at 30 secs interval for 65 mins by spectrophotometric method
Tubulin [21] = target: T2, Tubulin; experiment: as §2
A-375 [22] = experiment: Antitumor activity against human A375 cells xenografted in ip dosed NSG mouse assessed as suppression of tumor growth by measuring decrease in number Ki67 positive cells administered 5 times per week for 14 days measured post-last dose by immunohistochemical analysis; format: functional, organism-based
A-375 [23] = experiment: Antitumor activity against human A375 cells xenografted in ip dosed NSG mouse assessed as tumor growth inhibition administered 5 times per week for 14 days; format: functional, organism-based

T1 sequence (P02550 whole entry, looked up): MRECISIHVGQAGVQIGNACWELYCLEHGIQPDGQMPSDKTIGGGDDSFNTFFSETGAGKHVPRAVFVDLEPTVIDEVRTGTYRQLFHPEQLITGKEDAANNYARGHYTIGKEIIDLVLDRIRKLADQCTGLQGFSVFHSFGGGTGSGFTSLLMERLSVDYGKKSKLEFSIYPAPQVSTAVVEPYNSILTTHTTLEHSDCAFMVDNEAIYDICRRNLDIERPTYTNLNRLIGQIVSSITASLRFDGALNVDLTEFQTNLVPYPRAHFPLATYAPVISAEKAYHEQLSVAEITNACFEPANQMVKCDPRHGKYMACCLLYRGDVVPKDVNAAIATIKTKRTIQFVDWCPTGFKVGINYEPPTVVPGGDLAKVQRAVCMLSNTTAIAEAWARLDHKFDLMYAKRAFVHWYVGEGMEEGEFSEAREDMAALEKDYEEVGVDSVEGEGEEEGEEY
T1 sequence (P02554 whole entry, looked up): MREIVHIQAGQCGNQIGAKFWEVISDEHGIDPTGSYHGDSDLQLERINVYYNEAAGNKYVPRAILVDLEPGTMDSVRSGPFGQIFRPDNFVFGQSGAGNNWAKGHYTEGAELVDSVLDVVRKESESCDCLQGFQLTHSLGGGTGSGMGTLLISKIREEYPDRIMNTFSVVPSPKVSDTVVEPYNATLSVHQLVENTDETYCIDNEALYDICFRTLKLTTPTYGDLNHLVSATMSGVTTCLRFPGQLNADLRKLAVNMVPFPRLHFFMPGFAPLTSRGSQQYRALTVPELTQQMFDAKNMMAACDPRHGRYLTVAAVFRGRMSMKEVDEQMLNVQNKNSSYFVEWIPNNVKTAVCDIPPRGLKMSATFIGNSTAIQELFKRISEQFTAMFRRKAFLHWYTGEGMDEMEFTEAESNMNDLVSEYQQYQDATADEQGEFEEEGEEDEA

IC50 (A-375 [1]) [nM]	inhibition (Tubulin (Sus scrofa) [2])	IC50 (MDA-MB-231) [nM]	IC50 (SK-BR-3) [nM]	IC50 (MDA-MB-453) [nM]	IC50 (PC-3) [nM]	Structure (SMILES)	IC50 (RPMI-7951) [nM]	IC50 (M14) [nM]	IC50 [3] [nM]	IC50 [4] [nM]	IC50 [5] [nM]	IC50 (DU-145) [nM]	other results
5.9	Active	4.9	4.8	5		COc1cc(C(=O)c2cccc(-c3ccc(C)cc3)n2)cc(OC)c1OC	7.2	4.9					
					1.9	CC(=O)O[C@H]1C(=O)[C@@]2(C)[C@H]([C@H](OC(=O)c3ccccc3)[C@]3(O)C[C@H](OC(=O)[C@H](O)[C@@H](NC(=O)c4ccccc4)c4ccccc4)C(C)=C1C3(C)C)[C@]1(OC(C)=O)CO[C@@H]1C[C@@H]2O [PACLITAXEL]			148	200	> 1000		
1.5	Active	1.7	2.8	1.2	1.7	COc1cc(C(=O)c2cccc(-c3ccc(C)c(O)c3)n2)cc(OC)c1OC	1.7	0.9 to 1.7	2.5	1.4	2.8	3.7	Activity (A-375 [6]): 83.33%; Activity (A-375 [7]): Active; Activity [8]: Non-Toxic; Activity (A-375 [9]): Active; Ratio IC50 [10]: 0.8; Activity (A-375 [11]): 58.54%; Activity (A-375 [12]): Active; Activity (A-375 [13]): 48.81%; Ratio IC50 [14]: 1.5; Activity (A-375 [15]): Active; Ratio IC50 [16]: 1.5; Activity (A-375 [17]): 88.5%; Activity (Tubulin (Sus scrofa) [18]): Dose-dependent effect; Kd (Tubulin [19]): 2660 nM; inhibition (Tubulin (Sus scrofa) [20]): Dose-dependent effect; IC50 (Tubulin [21]): 5000 to 10000 nM; Activity (A-375 [22]): Dose-dependent effect; TGI (A-375 [23]): Dose-dependent effect

Structure (SMILES)	IC50 (A-375 [1]) [nM]	inhibition (Tubulin (Sus scrofa) [2])	IC50 (MDA-MB-231) [nM]	IC50 (SK-BR-3) [nM]	IC50 (MDA-MB-453) [nM]	IC50 (PC-3) [nM]	IC50 (RPMI-7951) [nM]	IC50 (M14) [nM]	IC50 [3] [nM]	IC50 [4] [nM]	IC50 [5] [nM]	IC50 (DU-145) [nM]	other results
COc1cc2c(c(OC)c1OC)-c1ccc(OC)c(=O)cc1[C@@H](NC(C)=O)CC2 [COLCHICINE]						19		9.3	56.3	1400	> 1000	17.3	
